In patent publication US9586936B2, “Heteroarylamine derivatives as protein kinase inhibitors” (KOREA INSTITUTE OF SCIENCE AND TECHNOLOGY, priority 2014, dated 2017):

Assays:
microsomal stability = assay type: in vitro ADME, Rat; conditions: for microsomal stability (% at time): Rat
Method: The microsomal stability of N-(2,6-dichloro-3,5-dimethoxyphenyl)-1-(6-((4-(4-ethylpiperazin-1-yl)phenyl)amino)pyrimidin-4-yl)-1H-benz[d]imidazol-2-amine synthesized in Example 1, as a representative compound of the present invention, was evaluated.

[1] = in-vivo PK profile, mouse PK; conditions: ICR mice
Text: The in-vivo PK profile (mouse PK/ICR mice and rat PK/Sprague-Dawley rat) of N-(2,6-dichloro-3,5-dimethoxyphenyl)-1-(6-((4-(4-ethylpiperazin-1-yl)phenyl)amino)pyrimidin-4-yl)-1H-benz[d]imidazol-2-amine synthesized in Example 1 is as follows.

CYP2C9 = CYP2C9 (Homo sapiens, UniProt P11712); assay: inhibition activity against CYPs (cytochromes P450); assay type: in vitro ADME
CYP2C9, sequence (P11712 whole entry): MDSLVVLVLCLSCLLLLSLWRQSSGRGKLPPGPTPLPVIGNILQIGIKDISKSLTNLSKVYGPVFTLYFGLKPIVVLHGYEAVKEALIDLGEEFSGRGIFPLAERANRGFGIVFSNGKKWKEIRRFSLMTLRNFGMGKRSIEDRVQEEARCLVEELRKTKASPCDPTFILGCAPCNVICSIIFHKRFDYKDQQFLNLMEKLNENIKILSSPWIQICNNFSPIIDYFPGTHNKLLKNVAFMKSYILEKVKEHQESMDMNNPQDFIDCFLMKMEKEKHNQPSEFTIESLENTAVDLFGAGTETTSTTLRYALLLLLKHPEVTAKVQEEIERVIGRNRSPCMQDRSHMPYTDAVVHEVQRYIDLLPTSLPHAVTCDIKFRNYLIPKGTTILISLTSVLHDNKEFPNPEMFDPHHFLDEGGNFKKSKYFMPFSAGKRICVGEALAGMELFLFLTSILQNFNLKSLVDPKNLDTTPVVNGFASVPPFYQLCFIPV
Method: The inhibition activity (inhibition rate, %) of N-(2,6-dichloro-3,5-dimethoxyphenyl)-1-(6-((4-(4-ethylpiperazin-1-yl)phenyl)amino)pyrimidin-4-yl)-1H-benz[d]imidazol-2-amine synthesized in Example 1, as a representative compound of the present invention, against CYPs (cytochromes P450) was measured in order to investigate the risk of drug side effects.

**Q.** Which “microsomal stability (% at time)” value (microsomal stability; 0 min) does the source give for CCN1CCN(c2ccc(Nc3cc(-n4c(Nc5c(Cl)c(OC)cc(OC)c5Cl)nc5ccccc54)ncn3)cc2)CC1 [Example 1, N-(2,6-dichloro-3,5-dimethoxyphenyl)-1-(6-((4-(4-ethylpiperazin-1-yl)phenyl)amino)pyrimidin-4-yl)-1H-benz[d]imidazol-2-amine] here?
**A.** 100.00%

**Q.** And the “microsomal stability (% at time)” value (microsomal stability; 5 min)?
**A.** 95.53%

**Q.** What about the “microsomal stability (% at time)” value (microsomal stability; 10 min) of the same compound?
**A.** 88.45%

**Q.** And the “microsomal stability (% at time)” value (microsomal stability; 15 min)?
**A.** 82.61%

**Q.** And the “microsomal stability (% at time)” value (microsomal stability; 30 min)?
**A.** 65.16%

**Q.** What about the “microsomal stability (% at time)” value (microsomal stability; 45 min) of the same compound?
**A.** 45.27%

**Q.** And the “microsomal stability (% at time)” value (microsomal stability; 60 min)?
**A.** 44.31%

**Q.** What about the half-life (microsomal stability; microsomes, Rat microsomal stability) of the same compound?
**A.** 39.6 min

**Q.** And the “F*” value ([1]; PO 10 mg/kg)?
**A.** 23.44%

**Q.** What about the AUC(0-inf) ([1]; mouse, in vivo, IV 5 mg/kg) of the same compound?
**A.** 350 ng·h/mL

**Q.** And the AUC(0-t) ([1]; mouse, in vivo, IV 5 mg/kg)?
**A.** 322 ng·h/mL

**Q.** And the Cmax ([1]; mouse, in vivo, IV 5 mg/kg)?
**A.** 111 ng/mL

**Q.** What about the Tmax ([1]; mouse, in vivo, IV 5 mg/kg) of the same compound?
**A.** 0.083 h

**Q.** What about the clearance ([1]; mouse, in vivo, IV 5 mg/kg) of the same compound?
**A.** 238 mL/min/kg

**Q.** What about the half-life ([1]; mouse, in vivo, IV 5 mg/kg) of the same compound?
**A.** 110 min

**Q.** What about the MRT inf ([1]; mouse, in vivo, IV 5 mg/kg, read-out: MRT(0-∞)) of the same compound?
**A.** 3.56 h

**Q.** What about the Vd ([1]; mouse, in vivo, IV 5 mg/kg, read-out: Vz) of the same compound?
**A.** 37.7 L/kg

**Q.** What about the AUC(0-t) ([1]; mouse, in vivo, PO 10 mg/kg) of the same compound?
**A.** 151 ng·h/mL

**Q.** What about the Cmax ([1]; mouse, in vivo, PO 10 mg/kg) of the same compound?
**A.** 27.1 ng/mL

**Q.** What about the Tmax ([1]; mouse, in vivo, PO 10 mg/kg) of the same compound?
**A.** 6 h

**Q.** What about the IC50 (CYP2C9; from 0.1-50 μM, unit from the table's concentration head, read-out: Expected IC50) of the same compound?
**A.** 44.8 µM

**Q.** What about the inhibition at 0.1 µM (CYP2C9; human, concentration 0.1 μM) of the same compound?
**A.** 10.3%

**Q.** And the inhibition at 0.5 µM (CYP2C9; human, concentration 0.5 μM)?
**A.** 8.79%

**Q.** And the inhibition at 5 µM (CYP2C9; human, concentration 5 μM)?
**A.** 24.6%

**Q.** What about the inhibition at 10 µM (CYP2C9; human, concentration 10 μM) of the same compound?
**A.** 30%

**Q.** And the inhibition at 25 µM (CYP2C9; human, concentration 25 μM)?
**A.** 52.4%

**Q.** And the inhibition at 50 µM (CYP2C9; human, concentration 50 μM)?
**A.** 53.4%

**Q.** And the “inhibition activity against CYP, statement in words” value (CYP2C9; summary of Table 5)?
**A.** no inhibition activity
